{"source": "patent US12433876B2", "about": "“Septin inhibitors for treatment of cancers” (UNIVERSITY OF ROCHESTER, priority 2019, dated 2025)", "key": {"ECC-1 cells": {"tested_on": "ECC-1 cells", "test": "Caspase-3/7 activity apoptosis assay", "assay_type": "cell-based", "conditions": "ECC-1, 33 μM, 48 hours", "experimental": "Cell lines, Culture, and Reagents. Cells were maintained in either DMEM (SKOV-3, KLE, OVCAR-3, OVCAR8-C5 and IGROV-1) or RPMI-1640 (ECC-1 and HCH-1), supplemented with 10% fetal calf serum (or 20% for OVCAR-3), penicillin (100 units/mL), and streptomycin (100 μg/mL) at 37° C. with 5% CO2 in a humidified incubator. Antibodies were purchased from Abcam (septin-2; ab179436) and Cell Signaling Technology; ERK (9102), p-ERK (4370), -actin (3700), u-Tubulin (2144), EGFR (4267) and HER2 (4290). FCF was purchased from Abcam. All other chemicals were from Sigma Aldrich. Synthesis of Derivaties. […] The reaction was monitored using thin-layer chromatography plates with DCM-MeOH or pure ethyl acetate as eluent. Spots were monitored in a UV chamber. […] Quantitative Real-Time PCR. […] Quantitative real-time PCR was conducted using QuantStudio 12 K Flex Real-Time PCR System (ABI) and the Taqman Gene Expression Assay (ABI) consisting of the FAM-labeled probes as follows: SEPT2 (Hs01565417_ml); WFDC2 (Hs00899484_ml); TBP (Hs00427620_ml) or B2M (Hs00187842_ml), which was used as reference for normalization. […] Cell viability, proliferation, and cellular apoptosis were measured using the MTS (Promega), BrdU cell proliferation (Cell Signaling Technology), and Caspase-Glo 3/7 apoptosis detection (Promega) assays, following the respective manufacturer's recommendations with suitable modification. […]"}, "SKOV-3 xenograft tumors": {"tested_on": "SKOV-3 xenograft tumors", "test": "SKOV-3 xenograft tumor growth", "assay_type": "in vivo, NSG mice", "protocol": "NSG mice 356 were implanted in their left flank with 1 million PANC-1 (HER2+, n=12), JIMT1 (number of animals=10) and SKOV-3 (number of animals=10) cells each in matrigel:media (1:1). […] The vehicle formulation was: 40% Hydroxypropyl-beta-cyclodextrin [Acros Organics] & solutol HS15 (Sigma] in sterile water). 25 mg/kg equivalent of UR214-9 (1 uL=200 ug in DMSO) was dissolved in 600 uL PBS+400 uL of the vehicle and vortexed to obtain a clear suspension."}}, "data": [{"smiles": "O=C(Nc1cc(Cl)nc(Cl)c1)Nc1cccc(SC(F)(F)F)c1F", "note": "[UR214-9]", "values": [{"measurement": "apoptosis (caspase-3/7 activity)", "setting": "ECC-1 cells", "result": "much more effective"}, {"measurement": "tumor growth during treatment", "setting": "SKOV-3 xenograft tumors; UR214-9 25 mg/kg, M-F, I.P., trastuzumab 10 mg/kg, M", "result": "controlled the growth of tumors"}, {"measurement": "weight of extracted tumors", "setting": "SKOV-3 xenograft tumors; day 53 since inoculation", "result": "matched the average size seen in vehicle group"}, {"measurement": "tumor size after treatments were stopped", "setting": "SKOV-3 xenograft tumors; treatment stopped on day 27", "result": "reached the average size in control"}]}]}
